We go through 18 substances from the OligoGym collection.

For this series, the target named is ATXN2. Description: mouse, dose not given. To be noted: ASO.

HELM strings list units from the 5' end as sugar, base in round brackets, then linkage (d deoxyribose, r ribose, m 2'-O-methyl, p phosphodiester). Strings are as the collection lists them; they lack the last nucleoside at the 3' end of the tested compound. [moe] = 2'-O-(2-methoxyethyl) (MOE); [sp] = phosphorothioate linkage; [m5C] = 5-methylcytosine

For “RNA1{[moe](T)[sp].[moe](A)p.[moe](G)p.[moe]([m5C])p.[moe](A)p.d(T)[sp].d([m5C])[sp].d(A)[sp].d(T)[sp].d(T)[sp].d(G)[sp].d(G)[sp].d([m5C])[sp].d(G)[sp].d([m5C])[sp].[moe](A)p.[moe](T)p.[moe](G)[sp].[moe](G)}$$$$ (last 3' nucleoside missing)”, the 3 h FOB score was 6.25 score 0-7.

“RNA1{[moe](A)[sp].[moe]([m5C])p.[moe](T)p.[moe](T)p.[moe](G)p.d(T)[sp].d(A)[sp].d([m5C])[sp].d(T)[sp].d(T)[sp].d([m5C])[sp].d(A)[sp].d([m5C])[sp].d(A)[sp].d(T)[sp].[moe](T)p.[moe](T)p.[moe](G)[sp].[moe](G)}$$$$ (last 3' nucleoside missing)” registered a 3 h FOB score of 1 score 0-7. “RNA1{[moe](G)[sp].[moe](A)p.[moe](T)p.[moe](A)p.[moe](T)p.d(G)[sp].d(T)[sp].d(T)[sp].d(A)[sp].d([m5C])[sp].d(A)[sp].d(A)[sp].d(A)[sp].d(T)[sp].d(T)[sp].[moe]([m5C])p.[moe](T)p.[moe]([m5C])[sp].[moe](T)}$$$$ (last 3' nucleoside missing)”: the 3 h FOB score is 0 score 0-7. The substance “RNA1{[moe](T)[sp].[moe](A)p.[moe]([m5C])p.[moe](A)p.[moe](G)p.d(G)[sp].d(T)[sp].d(G)[sp].d(A)[sp].d(G)[sp].d(A)[sp].d(T)[sp].d(A)[sp].d(T)[sp].d(A)[sp].[moe](T)p.[moe](A)p.[moe](G)[sp].[moe](G)}$$$$ (last 3' nucleoside missing)” showed a 3 h FOB score of 4 score 0-7. The same measure for “RNA1{[moe](G)[sp].[moe](T)p.[moe](G)p.[moe](A)p.[moe](T)p.d(G)[sp].d(T)[sp].d(T)[sp].d(T)[sp].d([m5C])[sp].d(A)[sp].d(T)[sp].d(T)[sp].d(G)[sp].d(G)[sp].[moe](G)p.[moe](T)p.[moe](T)[sp].[moe](T)}$$$$ (last 3' nucleoside missing)”: 4.5 score 0-7. “RNA1{[moe](A)[sp].[moe]([m5C])p.[moe](A)p.[moe]([m5C])p.[moe](A)p.d(G)[sp].d(T)[sp].d(T)[sp].d(T)[sp].d([m5C])[sp].d(A)[sp].d([m5C])[sp].d(T)[sp].d(A)[sp].d(G)[sp].[moe](G)p.[moe](T)p.[moe](T)[sp].[moe]([m5C])}$$$$ (last 3' nucleoside missing)” returned a 3 h FOB score of 0 score 0-7. “RNA1{[moe](T)[sp].[moe]([m5C])p.[moe]([m5C])p.[moe](T)p.[moe](T)p.d(G)[sp].d(T)[sp].d(T)[sp].d(G)[sp].d(T)[sp].d(A)[sp].d(T)[sp].d(G)[sp].d(G)[sp].d(T)[sp].[moe](A)p.[moe](A)p.[moe](T)[sp].[moe](T)}$$$$ (last 3' nucleoside missing)”: the 3 h FOB score worked out at 5 score 0-7. With “RNA1{[moe](T)[sp].[moe](T)p.[moe]([m5C])p.[moe](T)p.d([m5C])[sp].d(T)[sp].d(A)[sp].d(T)[sp].d(T)[sp].d(T)[sp].d([m5C])[sp].d(T)[sp].d(T)[sp].d(T)[sp].[moe](G)p.[moe](T)p.[moe]([m5C])p.[moe]([m5C])[sp].[moe](A)}$$$$ (last 3' nucleoside missing)”, the 3 h FOB score came to 4 score 0-7. For “RNA1{[moe](G)[sp].[moe](T)p.[moe](T)p.[moe](T)p.[moe](A)p.d(A)[sp].d(T)[sp].d(T)[sp].d(T)[sp].d(G)[sp].d(T)[sp].d(A)[sp].d(A)[sp].d([m5C])[sp].d(T)[sp].[moe](A)p.[moe](G)p.[moe](G)[sp].[moe](T)}$$$$ (last 3' nucleoside missing)”, the 3 h FOB score came out at 3.5 score 0-7.

As to “RNA1{[moe](G)[sp].[moe](A)p.[moe](T)p.[moe](T)p.[moe](A)p.d(A)[sp].d([m5C])[sp].d(G)[sp].d(G)[sp].d(T)[sp].d(T)[sp].d(G)[sp].d([m5C])[sp].d(T)[sp].d(T)[sp].[moe](A)p.[moe](G)p.[moe](G)[sp].[moe](G)}$$$$ (last 3' nucleoside missing)”, the 3 h FOB score stood at 6.5 score 0-7. The same measure for “RNA1{[moe](A)[sp].[moe]([m5C])p.[moe](A)p.[moe]([m5C])p.[moe](A)[sp].d(G)[sp].d(T)[sp].d(T)[sp].d(T)[sp].d([m5C])[sp].d(A)[sp].d([m5C])[sp].d(T)[sp].d(A)[sp].d(G)[sp].[moe](G)p.[moe](T)p.[moe](T)[sp].[moe]([m5C])}$$$$ (last 3' nucleoside missing)”: 4.75 score 0-7; for “RNA1{[moe]([m5C])[sp].[moe](T)[sp].[moe]([m5C])[sp].[moe](T)[sp].[moe]([m5C])[sp].d([m5C])[sp].d(A)[sp].d(T)[sp].d(T)[sp].d(A)[sp].d(T)[sp].d(T)[sp].d(T)[sp].d([m5C])[sp].d(T)[sp].[moe](T)[sp].[moe]([m5C])[sp].[moe](A)[sp].[moe]([m5C])}$$$$ (last 3' nucleoside missing)”: 7 score 0-7. “RNA1{[moe](T)[sp].[moe](G)p.[moe](T)p.[moe](A)p.[moe]([m5C])[sp].d(T)[sp].d(T)[sp].d(T)[sp].d(T)[sp].d([m5C])[sp].d(T)[sp].d([m5C])[sp].d(A)[sp].[moe](T)p.[moe](G)p.[moe](T)[sp].[moe](G)}$$$$ (last 3' nucleoside missing)” had a 3 h FOB score of 0 score 0-7. “RNA1{[moe](T)[sp].[moe]([m5C])p.[moe](T)p.[moe](T)p.[moe](G)p.d(T)[sp].d(T)[sp].d(G)[sp].d(T)[sp].d(T)[sp].d(G)[sp].d(T)[sp].d(T)[sp].d(T)[sp].d(A)[sp].[moe]([m5C])p.[moe](A)p.[moe](T)[sp].[moe](T)}$$$$ (last 3' nucleoside missing)”: the 3 h FOB score was found to be 3 score 0-7. In the case of “RNA1{[moe]([m5C])[sp].[moe](G)p.[moe](G)p.[moe](A)p.[moe](T)p.d(T)[sp].d(G)[sp].d(T)[sp].d(T)[sp].d(T)[sp].d(T)[sp].d([m5C])[sp].d(T)[sp].d(T)[sp].d([m5C])[sp].[moe](A)p.[moe](T)p.[moe](T)[sp].[moe](A)}$$$$ (last 3' nucleoside missing)” it was 1 score 0-7; in that of “RNA1{[moe](G)[sp].[moe](G)p.[moe](A)p.[moe](T)p.[moe](T)p.d(G)[sp].d(T)[sp].d(T)[sp].d(T)[sp].d(T)[sp].d([m5C])[sp].d(T)[sp].d(T)[sp].d([m5C])[sp].d(A)[sp].[moe](T)p.[moe](T)p.[moe](A)[sp].[moe](T)}$$$$ (last 3' nucleoside missing)”, 0 score 0-7. The substance “RNA1{[moe](G)[sp].[moe](T)p.[moe](T)p.[moe](G)p.[moe](T)p.d(T)[sp].d(G)[sp].d(T)[sp].d(T)[sp].d(T)[sp].d(A)[sp].d([m5C])[sp].d(A)[sp].d(T)[sp].d(T)[sp].[moe](A)p.[moe](T)p.[moe](T)[sp].[moe](A)}$$$$ (last 3' nucleoside missing)” came in with a 3 h FOB score of 0 score 0-7.

“RNA1{[moe](G)[sp].[moe](T)p.[moe]([m5C])p.[moe](T)p.[moe](T)p.d(G)[sp].d(T)[sp].d(T)[sp].d([m5C])[sp].d(A)[sp].d(G)[sp].d(T)[sp].d(G)[sp].d(T)[sp].d([m5C])[sp].[moe]([m5C])p.[moe](T)p.[moe](T)[sp].[moe]([m5C])}$$$$ (last 3' nucleoside missing)” had a 3 h FOB score of 6 score 0-7.
